# According to PubChem BioAssay (NCI):
#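 Method: 48-hour compound exposure of cells in 96-well plates, five concentrations, linear interpolation of endpoints. TGI: concentration producing complete growth inhibition.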
# Key:
# Test in all cases: NCI tumour cell line growth inhibition, 48 h
# [1] = system: NCI-H460 lung
# [2] = system: A549 NSCLC
# [3] = system: NCI-H226 lung
# [4] = system: PC-3 prostate
# [5] = system: EKVX NSCLC
# [6] = system: 786-0 renal
# [7] = system: SR leukemia
# [8] = system: K-562 leukemia
# [9] = system: CCRF-CEM leukemia
# [10] = system: SK-MEL-2 melanoma
# [11] = system: M14 melanoma
# [12] = system: RPMI-8226 leukemia
SMILES,TGI [1] [µM],TGI [2] [µM],TGI [3] [µM],TGI [4] [µM],TGI [5] [µM],TGI [6] [µM],TGI [7] [µM],TGI [8] [µM],TGI [9] [µM],TGI [10] [µM],TGI [11] [µM],TGI [12] [µM]
CN1CCCOC(c2ccc([N+](=O)[O-])cc2)O1 (configuration not stated),> 100,> 100,> 100,> 100,> 100,> 100,> 100,> 100,> 100,> 100,> 100,–
COC(=O)c1c2c(cc3c1CC1(Cc4ccc(C(C)=O)cc4C1)C3)CCC2 (configuration not stated),> 100,> 100,> 100,82.2,> 100,> 100,> 100,> 100,> 100,–,–,> 100
Cc1ccc(C(=O)Nc2ccc(CP(=O)(O)O)cc2CP(=O)(O)O)cc1NC(=O)c1cccc(NC(=O)Nc2cccc(C(=O)Nc3cc(C(=O)Nc4ccc(CP(=O)(O)O)cc4CP(=O)(O)O)ccc3C)c2)c1,> 100,> 100,> 100,> 100,> 100,> 100,–,> 100,> 100,> 100,> 100,> 100
COc1cc(/C=C2\C(=O)N(c3ccccc3Cl)C(c3ccccc3)S2(=O)=O)cc(OC)c1OC (configuration not stated),> 100,> 100,> 100,–,> 100,> 100,–,94.9,48.9,> 100,> 100,42.9
CC(=O)N(C(C)=O)n1c(-c2ccccc2)n[nH]c1=O,–,> 100,–,> 100,> 100,> 100,> 100,> 100,> 100,> 100,> 100,> 100
O=C(Nc1ccccc1)n1[nH]c(=O)n(-c2ccccc2)c1=O,> 100,> 100,> 100,> 100,–,> 100,> 100,> 100,> 100,> 100,–,> 100
Cc1ccc(C2=C(C#N)C(=O)N3CCN=C3S2)cc1,> 100,> 100,> 100,> 100,> 100,> 100,> 100,> 100,> 100,> 100,> 100,–
N#Cc1cc(-c2nc3c(F)cccc3s2)ccc1N,> 100,> 100,> 100,> 100,0.894,> 100,–,> 100,> 100,–,> 100,> 100
Cc1cc2sc(C)[n+](CCCOS(=O)(=O)[O-])c2cc1C,> 100,> 100,> 100,> 100,> 100,> 100,> 100,> 100,–,> 100,> 100,> 100
C#C[C@]1(O)CC[C@H]2[C@@H]3CCC4=C/C(=N/NC(=O)c5cccc6cc7ccccc7nc56)CC[C@@H]4[C@H]3CC[C@@]21CC,> 100,> 100,> 100,> 100,–,> 100,> 100,> 100,> 100,> 100,> 100,> 100
Cc1ccc(C)n1-c1ccccc1C1C=CN(C(=O)OC(C)(C)C)C=C1,96.9,> 100,31.5,> 100,60.8,> 100,–,> 100,> 100,35.6,> 100,> 100
CC(=O)N1C(NN(C)C)CCN1c1ccccc1 (configuration not stated),–,> 10,–,> 10,> 10,> 10,> 10,> 10,> 10,–,> 10,> 10
Cc1ccc(N(C(=O)Nc2ccc(F)c(Cl)c2)C2=NCC(C)S2)cc1 (configuration not stated),> 100,> 100,–,> 100,> 100,> 100,> 100,> 100,> 100,> 100,–,–
COC(=O)[C@@H](NC(=O)N(CCC#N)CCCN(C(=O)N[C@H](Cc1ccccc1)C(=O)OC)c1ccccc1)C(C)C,–,> 100,> 100,> 100,> 100,> 100,–,–,> 100,> 100,> 100,> 100
Oc1cc(-c2ccc(Cl)cc2)cn2c1nc1ccccc12,> 100,–,> 100,> 100,> 100,> 100,–,> 100,–,–,> 100,–
Cc1ccc2c(c1)CC1(Cc3c(C)cccc3C1=O)C2=O (configuration not stated),> 100,> 100,> 100,> 100,> 100,> 100,> 100,> 100,> 100,–,> 100,> 100
CN1C(=O)C(c2c[nH]c3ccccc23)N(C)C(=O)C1c1c[nH]c2ccccc12 (configuration not stated),> 100,> 100,–,> 100,> 100,> 100,–,> 100,> 100,–,> 100,–
NC(=O)C1Cc2cc3c(cc21)OCO3 (configuration not stated),> 100,> 100,> 100,> 100,> 100,> 100,–,–,–,–,> 100,–
Cc1c2c(Cl)c3c(c(Cl)c2c(C)c2c(Cl)c4c(c(Cl)c12)C(c1ccccc1)(c1ccccc1)C4(c1ccccc1)c1ccccc1)C(c1ccccc1)(c1ccccc1)C3(c1ccccc1)c1ccccc1,> 100,> 100,> 100,> 100,> 100,> 100,> 100,> 100,> 100,> 100,> 100,–
CC(C)(C)c1ccc(-n2c3nc(=O)n(-c4ccccc4CO)c(=O)c-3cc3ccccc32)cc1,> 100,> 100,> 100,> 100,> 100,> 100,73,> 100,66.3,–,> 100,–
